{"source": "patent US20220315933A1", "about": "“SYSTEMS AND METHODS FOR SINGLE-STRAND BREAK SIGNALING AND REPAIR IN A CELL-FREE SYSTEM AND METHODS OF IDENTIFYING MODULATORS OF SINGLE-STRAND BREAK SIGNALING AND REPAIR” (University of North Carolina Charlotte, priority 2017, published 2022)", "key": {"[1]": {"test_system": "ATR-Chk1 DDR pathway", "test": "Defined SSB plasmid-induced checkpoint signaling in Xenopus HSS system (immunoblotting)", "format": "biochemical, Xenopus laevis", "conditions": "for SSB-induced Chk1 phosphorylation (Chk1 P-S344): HSS with SSB plasmid 75 ng/μL, 30 min incubation, inhibitor added", "procedure": "CTL or SSB plasmid was added to HSS at different concentrations as indicated, and incubated for 30 minutes. Extracts were examined via immunoblotting analysis for Chk1 phosphorylation (i.e., Chk1 P-Ser344) and total Chk1 (FIG. 8A). CTL or SSB plasmid was added to HSS at a final concentration of 75 ng/μL. After different time of incubation at room temperature, the extracts were examined via immunoblotting analysis (FIG. 8B). ATR inhibitor VE-822, ATM inhibitor KU55933, DNA-PK inhibitor NU7441, or recombinant geminin was added to HSS supplemented with CTL or SSB plasmid at a final concentration of […] for 30 minutes. Geminin or roscovitine was added to HSS supplemented with sperm chromatin and hydrogen peroxide. After a 45-min incubation, extracts were examined via immunoblotting analysis as indicated (FIG. 8F). CTL, SSB, or DSB plasmid was added to HSS at different concentrations as indicated. Samples were examined via immunoblotting analysis (FIG. 8G).\nCTL or SSB plasmid was added to HSS with the presence or absence of VE-822. After 30-min incubation, Chk1 phosphorylation, RPA32 phosphorylation, and Rad17 phosphorylation were examined via immunoblotting analysis as indicated in the image in FIG. 9A. CTL or SSB plasmid was added to NPE with the presence or absence of VE-822 (ATR inhibitor) or Tautomycin (phosphatase inhibitor). Samples were examined via immunoblotting analysis as illustrated in FIG. 9B. For FIG. 9C, CTL or SSB plasmid was added to mock- or Pol alpha-depleted HSS. After 30-min incubation, samples were analyzed via immunoblotting analysis, as illustrated.\n(§1) The care and use of Xenopus laevis was approved by the Institutional Animal Care and Use Committee (IACUC) of the University of North Carolina at Charlotte. The preparation of Xenopus LSS, HSS, and NPE were described previously (35,36,39, which are hereby incorporated by reference herein). […] DNA synthesis analysis was performed as previously described (11,35, which are hereby incorporated by reference herein). ImageQuat software was used to quantify the DNA synthesis from HSS/NPE system. […] DNA-bound fractions from the HSS system were isolated after spinning extracts through a sucrose cushion (0.9 M sucrose, 2.5 mM MgCl2, 50 mM KCl, 10 mM HEPES, pH7.7) at 10,000 rpm for 2 minutes at 4° C. with a swinging bucket.\nTo determine whether a defined SSB structure triggers a DDR pathway, different concentrations of SSB or CTL plasmid structure were added to HSS, followed by immunoblotting analysis after a 30-minute incubation."}, "[2]": {"test_system": "ATR-Chk1 DDR pathway", "test": "Hydrogen peroxide-induced Chk1 phosphorylation in HSS supplemented with sperm chromatin (immunoblotting)", "format": "biochemical, Xenopus laevis", "conditions": "HSS with sperm chromatin and hydrogen peroxide, 45-min incubation", "procedure": "FIGS. 8A-8G illustrate that the ATR-Chk1 DNA damage response pathway is induced by the defined SSB structure in the HSS system. CTL or SSB plasmid was added to HSS at different concentrations as indicated, and incubated for 30 minutes. Extracts were examined via immunoblotting analysis for Chk1 phosphorylation (i.e., Chk1 P-Ser344) and total Chk1 (FIG. 8A). CTL or SSB plasmid was added to HSS at a final concentration of 75 ng/μL. After different time of incubation at room temperature, the extracts were examined via immunoblotting analysis (FIG. 8B). ATR inhibitor VE-822, ATM inhibitor KU55933, DNA-PK inhibitor NU7441, or recombinant geminin was added to HSS supplemented with CTL or SSB plasmid at a final concentration of […] for 30 minutes. Geminin or roscovitine was added to HSS supplemented with sperm chromatin and hydrogen peroxide. After a 45-min incubation, extracts were examined via immunoblotting analysis as indicated (FIG. 8F). CTL, SSB, or DSB plasmid was added to HSS at different concentrations as indicated. Samples were examined via immunoblotting analysis (FIG. 8G).\nThe care and use of Xenopus laevis was approved by the Institutional Animal Care and Use Committee (IACUC) of the University of North Carolina at Charlotte. […] ImageQuat software was used to quantify the DNA synthesis from HSS/NPE system. […]"}, "[3]": {"test_system": "ATR-Chk1 DDR pathway", "test": "Plasmid-induced Chk1 phosphorylation in NPE (immunoblotting)", "format": "biochemical, Xenopus laevis", "procedure": "After 30-min incubation, Chk1 phosphorylation, RPA32 phosphorylation, and Rad17 phosphorylation were examined via immunoblotting analysis as indicated in the image in FIG. 9A. […] Samples were examined via immunoblotting analysis as illustrated in FIG. 9B. For FIG. 9C, CTL or SSB plasmid was added to mock- or Pol alpha-depleted HSS. After 30-min incubation, samples were analyzed via immunoblotting analysis, as illustrated.\nas §1"}, "[4]": {"test_system": "U2OS cells", "test": "Hydrogen peroxide-induced ATR-Chk1 DDR in human U2OS cells (immunoblotting)", "format": "cell-based", "conditions": "asynchronized U2OS cells; VE-822 5 μM 1 hour, then hydrogen peroxide 1.25 mM 4 hours", "procedure": "FIGS. 11A-11B illustrate that hydrogen peroxide induces Chk1 phosphorylation and RPA32 phosphorylation in an ATR-dependent manner in human U2OS cells. FIG. 11A is a digital image of immunoblotting analysis of asynchronized U2OS cells treated with H2O2 and/or VE-822. Cell lysates were analyzed via immunoblotting analysis as indicated. G1 synchronized U2OS cells were treated with H2O2 and/or VE-822. Cell lysates were analyzed via immunoblotting analysis as indicated and illustrated in FIG. 11B.\nHuman U2OS cells were purchased from the American Type Culture Collection (ATCC) and cultured in Dulbecco's Modified Eagle Medium (DMEM, Life Technologies) supplemented with 10% fetal bovine serum (FBS, Invitrogen), penicillin (100 U/mL) and streptomycin (100 μg/mL, Life Technologies) in incubator at 37° C. and 5% CO2. […] Cells were treated with VE-822 (5 μM) in culture medium for 1 hour followed by hydrogen peroxide treatment (1.25 mM) for 4 hours. Then cells were collected and split for immunoblotting analysis and FACS analysis. For immunoblotting analysis, equal total proteins of cell lysates (10 μg per lane) were loaded and Tubulin was used for loading control. For FACS analysis, cells were further fixed and stained with DAPI followed by cell cycle profiling using FACS machine (BD LSRFortessa) following manufacturer's standard protocol."}, "[5]": {"test_system": "SSB repair", "test": "SSB repair of SSB plasmid in the HSS system (agarose gel)", "format": "biochemical, Xenopus laevis", "conditions": "SSB plasmid in HSS with or without VE-822; circular/(circular+nicked)", "procedure": "FIGS. 6A-6D illustrate verification and analysis of the defined DNA structures. FIG. 6A is an image verifying the defined SSB structure on agarose gel (Ethidium bromide staining). CTL plasmid was added to HSS for different time. Then DNA samples were isolated and treated with or without Sbfl, and analyzed on agarose gel (Ethidium bromide staining) as shown in FIG. 6B. For FIG. 6C, the SSB plasmid was added to HSS with or without VE-822 for different time as indicated. SSB repair products were isolated and examined on agarose gel (Ethidium bromide staining). FIG. 6D is a graph quantifying SSB repair capacity (circular/(circular+nicked)×100) with or without VE-822 treatment in the HSS system from FIG. 6C.\nNuclease-free water was added to each reaction of HSS that was incubated with SSB or DSB plasmid to a total of 300 μL. Equal volume of phenol-chloroform was added to the mixture and resuspended up and down 5 times and spin for 5 minutes at 13,000 rpm at room temperature. The top aqueous layer was transferred to a new tube and repeat phenol-chloroform extraction. […] Then the purified DNA repair products were analyzed on agarose gel and stained with ethidium bromide. […]"}}, "data": [{"molecule": "C[C@@]1(CO)[C@H](O)CC[C@@]2(C)[C@H]1CC[C@H]1C[C@@H]3C[C@@]12CC[C@]3(O)CO", "note": "[aphidicolin]", "values": [{"measurement": "SSB-induced Chk1 phosphorylation (Chk1 P-S344)", "setting": "[1]", "result": "not affected"}]}, {"molecule": "CC[C@H](CO)Nc1nc(NCc2ccccc2)c2ncn(C(C)C)c2n1", "note": "[rescovitine]", "values": [{"measurement": "hydrogen peroxide-induced Chk1 phosphorylation in the HSS", "setting": "[2]", "result": "had no effect"}]}, {"molecule": "O=c1cc(N2CCOCC2)oc2c(-c3cccc4c3sc3ccccc34)cccc12", "note": "[NU7441]", "values": [{"measurement": "SSB-induced Chk1 phosphorylation (Chk1 P-S344)", "setting": "[1]", "result": "almost had no effect"}]}, {"molecule": "CO[C@H]([C@H](O)CC(=O)[C@@H](C)[C@@H](O)CC[C@@H](C)[C@@H]1O[C@]2(CC[C@@H](C)[C@H](CC[C@H](C)C(C)=O)O2)CC[C@@H]1C)[C@H](OC(=O)C[C@@H](O)C1=C(C)C(=O)OC1=O)C(C)C", "note": "[tautomycin]", "values": [{"measurement": "SSB plasmid-triggered Chk1 phosphorylation in NPE", "setting": "[3]; with the presence of tautomycin, no detectable Chk1 phosphorylation without it", "result": "very robust"}]}, {"molecule": "O=c1cc(-c2cccc3c2Sc2ccccc2S3)oc(N2CCOCC2)c1", "note": "[KU55933]", "values": [{"measurement": "SSB-induced Chk1 phosphorylation (Chk1 P-S344)", "setting": "[1]", "result": "almost had no effect"}]}, {"molecule": "CNCc1ccc(-c2cc(-c3nc(-c4ccc(S(=O)(=O)C(C)C)cc4)cnc3N)on2)cc1", "note": "[VE-822]", "values": [{"measurement": "SSB-induced Chk1 phosphorylation (Chk1 P-S344)", "setting": "[1]", "result": "compromised"}, {"measurement": "SSB-induced RPA32 phosphorylation", "setting": "[1]; HSS with SSB plasmid, 30 min", "result": "sensitive"}, {"measurement": "SSB-induced Rad17 phosphorylation", "setting": "[1]; HSS with SSB plasmid, 30 min", "result": "sensitive"}, {"measurement": "Chk1 phosphorylation events in NPE (SSB plasmid- and CTL plasmid-induced)", "setting": "[3]; NPE with the presence of tautomycin", "result": "inhibited"}, {"measurement": "hydrogen peroxide-induced Chk1 phosphorylation", "setting": "[4]", "result": "prevented"}, {"measurement": "hydrogen peroxide-induced RPA32 phosphorylation", "setting": "[4]", "result": "prevented"}, {"measurement": "SSB repair in the HSS system", "setting": "[5]", "result": "compromised"}]}, {"molecule": "Nc1ccc2c3c(cccc13)C(=O)NC2=O", "note": "[4-Amino-1,8-naphthalimide]", "values": [{"measurement": "SSB-induced Chk1 phosphorylation (Chk1 P-S344)", "setting": "[1]", "result": "enhanced"}]}, {"molecule": "geminin: MCM helicase inhibitor recombinant geminin protein (protein, UniProt O75496 1-209, looked up) Geminin: MNPSMKQKQEEIKENIKNSSVPRRTLKMIQPSASGSLVGRENELSAGLSKRKHRNDHLTSTTSSPGVIVPESSENKNLGGVTQESFDLMIKENPSSQYWKEVAEKRRKALYEALKENEKLHKEIEQKDNEIARLKKENKELAEVAEHVQYMAELIERLNGEPLDNFESLDNQEFDSEEETVEDSLVEDSEIGTCAEGTVSSSTDAKPCI", "values": [{"measurement": "SSB-induced Chk1 phosphorylation (Chk1 P-S344)", "setting": "[1]", "result": "not impaired"}, {"measurement": "hydrogen peroxide-induced Chk1 phosphorylation in the HSS", "setting": "[2]", "result": "had no effect"}]}]}
